Reference: patent US6287848A, “Dosage modeling system” (Johns Hopkins University, priority 1999, dated 2001)
Like-named read-outs stand apart in the source and are kept apart here.

Tests used:
[1] = tested on: human T-lymphoblastic cell line CEM, infected with HIV; assay: Intracellular and extracellular pharmacokinetic profiles of ZDV and its metabolites in hollow-fiber bioreactor dosing system (Example 2); assay type: in vitro ADME
Method: The bioreactor includes a cartridge of polypropylene capillaries that is commercially available from Unisyn Technologies, Inc. (Hopkinton, Mass.). The cells in the bioreactor are a human T-lymphoblastic cell line CEM, infected with HIV. The volume of distribution (VD), which is total amount of fluid in the loop 201 and the central reservoir 230, is 50 ml. The fast and slow pumps are Ismatic Peristaltic Pumps commercially available from Cole-Parmer (Niles, Ill.). The dosing element is a programmable dosing pump commercially available from Medex, Inc. (Deluth, Ga.).
The fast pump is operated at a flow rate of 35 ml/min. The dilution pump 218 is operated at a flow rate of 0.5 ml/min.
The drug Zidovudine (ZDV) is infused at four different dosing regimens for a dosing period of 24 hours, i.e., 0.1 μg/ml, continuously at 0.37 μM; 100 μg every 8 hours; 150 μg every 12 hours; and 300 μg at 24 hours. The control is operated without dosing ZDV.
Samples are removed through sampling port 272. Extracellular concentrations are determined from the fluid, and intracellular concentrations are determined after harvesting and treating the cells to extract the contents.
Drug concentration time curves allow the determination of Cmax, Cmin and AUC.
Thus, the AUCs are similar for the intracellular ZDV-diphosphate and intracellular ZDV-triphosphate.

[2] = tested on: HIV reverse transcriptase; conditions: active metabolite; cited from earlier work

Compound	intracellular AUCs across four dosing regimens [1]	intracellular concentration on increasing the dose of ZDV [1]	intracellular concentration profiles across four dosing regimens ([1]; FIG. 11a-c, ZDV infused over 24 h: continuously at 0.37 μM, 100 μg every 8 hours, 150 μg every 12 hours, 300 μg at 24 hours)	intracellular concentration on increasing the dose of ZDV ([1]; increasing the dose of ZDV)	rate limiting step of intracellular ZDV phosphorylation ([1]; suggested by the data)	amount of ZDV-triphosphate resulting from all four dosing regimens [1]	inhibits HIV reverse transcriptase, which results in the inhibition of HIV replication [2]
Cc1cn([C@H]2C[C@H](N=[N+]=[N-])[C@@H](COP(=O)(O)OP(=O)(O)O)O2)c(=O)[nH]c1=O [ZDV-diphosphate]	similar	does not result in an increase	–	–	–	–	–
Cc1cn([C@H]2C[C@H](N=[N+]=[N-])[C@@H](COP(=O)(O)O)O2)c(=O)[nH]c1=O [ZDV-monophosphate]	–	–	different profiles	relative increase	rate limiting step is the conversion of ZDV-monophosphate to ZDV-iphosphate	–	–
Cc1cn([C@H]2C[C@H](N=[N+]=[N-])[C@@H](CO[P@](=O)(O)O[P@](=O)(O)OP(=O)(O)O)O2)c(=O)[nH]c1=O [ZDV-triphosphate]	similar	does not result in an increase	–	–	–	same amount	inhibits HIV reverse transcriptase
